Source: patent US20240043435A1, “TYK-2 INHIBITOR” (BEIGENE, LTD., priority 2020, published 2024)

Experiments:
[1] = target: T1, TYK2-JH2 (aa 575-869, in-house) protein (Homo sapiens, UniProt P29597); test: TYK2-JH2 biochemical assay (HTRF probe displacement); assay type: binding; settings: Biochemical assay; read-out: TYK2-JH2 IC50
T1 construct: TYK2-JH2 (aa 575-869, in-house) protein; made in house
Procedure: Assay A: TYK2-JH2 Biochemical Assay
Compounds disclosed herein were tested for blocking of TYK2-JH2 (aa 575-869, in-house) protein with its probe in an assay based on Homogeneous Time Resolved Fluorescence. Compound dilution is done according to the following protocol: (1) Prepare 500× compounds solution in DMSO from 500 uM by 5-fold dilution, total 10 doses were included; (2) Prepare 10× compounds solution in an assay buffer containing 20 mM HEPES, pH 7.5, 10 mM MgCl2, 0.005% BSA, 2 mM DTT, 0.015% Brij-35 by transferring 1 μl serial 500× stock solution into 49 μl assay buffer. […] of 0.2 nM recombinant TYK2-JH2 protein was pre-incubated with 1 μl of 10× serial dilution of compounds at room temperature for 0.5 hour. […] The HTRF signals (ex337 nm, em620 nm/665 nm) were read on BMG PHERAstar FS instrument. The inhibition percentage of TYK2 interaction with its probe in presence of increasing concentrations of compounds was calculated based on the ratio of fluorescence at 615 nm to that at 665 nm. The IC50 for each compound was derived from fitting the data to the four-parameter logistic equation by Dotmatics.

pSTAT5/GM-CSF = pSTAT5/GM-CSF cellular assay (JAK2 selectivity); assay type: cell-based; settings: for Selectivity fold (TYK2/JAK2): pSTAT5/GM-CSF IC50 over pSTAT4/IL-12 IC50
[2] = test system: JAK2, TYK2/p-STAT4 (Tyr693) activated by IL-12 in NK-92 cell line; test: IL-12-JAK2, TYK2/p-STAT4 (Tyr693) inhibition IC50 cellular assay; assay type: cell-based; settings: for IC50: NK92, Cellular assay, read-out: pSTAT4/IL-12 IC50
Excerpt: Assay C: IL-12-JAK2, TYK2/p-STAT4 (Tyr693) Inhibition IC50 Cellular Assay
To evaluate the inhibition effect of compounds disclosed herein on JAK2, TYK2/p-STAT4 (Tyr693) activated by IL-12 in NK-92 cell line, NK-92 cells were collected and washed 3 times by DPBS and resuspended in MEM-α (GIBCO, Cat #12561056) with 10% FBS (Gibco, Cat #10099, Lot #1891605), without IL-2 (R&D systems, Cat #202-IL), starved overnight. Cells were collected and resuspended in 1640 medium (phenol red free, Gibco, Cat #11835-030) with 0.1% BSA, and 12.5 μl/5×10^4/well cell suspension were seeded to the 96-well plate (Corning, Cat #3799). Then cells were treated with compounds diluted in 0.2% DMSO 1640 medium, at 37° C., 1 h. Dilution is done according to the following protocol: (1) make 500× compounds solution in DMSO from 5 mM by 4-fold dilution, total 8 doses were included; (3) make 2× compounds solution in assay medium by transferring 0.5 μl serial 500× stock solution into 125 μl assay medium; (4) 15 μl of 2× serial solution is added to cells and incubate at 37° C. for 1 h, the final compound conc. is 10000, 2500, 625, 156.25, 39, 9.8, 2.4 and 0.61 nM, respectively. After 1 h, cells were treated with 2.5 μl medium containing IL-12 at 37° C. (R&D systems, Cat #219-IL-005, final conc. 40 ng/ml), 30 min. Following cells were lysed with 7.5 μl lysis buffer at RT, shaking on shaker for 1 h. 10 μL of cell lysate were transferred to a PE 384-well Proxiplate detection plate, and 5 μL of pre-mixed Alphascreen beads were added to each well. Covered the plate with a plate sealer, span 1000 rpm for 1 min, mix, Incubated overnight at room temperature. Read on BMG PheraStar with Alphascreen protocol. IC 50 values were calculated by fitting dependent data to the four-parameter logistic model using dotmatics software. The assay was performed by using AlphaLISA SureFire Ultra p-STAT4 (Tyr693) Assay Kit—High Volume (PE, Cat #ALSU-PST4-A-HV).

T1 sequence (P29597 575-869): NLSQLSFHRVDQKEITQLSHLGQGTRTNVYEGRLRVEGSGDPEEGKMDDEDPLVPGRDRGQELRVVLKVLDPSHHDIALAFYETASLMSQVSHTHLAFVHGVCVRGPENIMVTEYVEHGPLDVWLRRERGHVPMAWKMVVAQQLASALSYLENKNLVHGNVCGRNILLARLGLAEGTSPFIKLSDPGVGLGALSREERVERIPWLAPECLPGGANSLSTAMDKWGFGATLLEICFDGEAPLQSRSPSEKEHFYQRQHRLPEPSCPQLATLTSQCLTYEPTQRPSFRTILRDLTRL

Row | Compound | IC50 [1] [nM] | also measured
1 | COC(C)c1cc(Nc2cc(NC(C)=O)ncc2-c2ccc(N3C[C@@H](C)O[C@@H](C)C3)cn2)nc(S(C)(=O)=O)c1 (single isomer, unassigned) [Example C19, N-(5-((cis)-2,6-dimethylmorpholino)-4′-((4-((R or S)-1-methoxyethyl)-6-(methylsulfonyl)pyridin-2-yl)amino)-[2,3′-bipyridin]-6′-yl)acetamide] | 0.023 | –
2 | COC(C)c1cc(Nc2cc(NC(C)=O)ncc2-c2ccc(N3C[C@@H](C)O[C@@H](C)C3)cn2)nc(S(C)(=O)=O)c1 (single isomer, unassigned) [Example C20, N-(5-((cis)-2,6-dimethylmorpholino)-4′-((4-((R or S)-1-methoxyethyl)-6-(methylsulfonyl)pyridin-2-yl)amino)-[2,3′-bipyridin]-6′-yl)acetamide] | 0.023 | –
3 | CC(=O)Nc1cc(Nc2cccc(S(C)(=O)=O)n2)c(-c2cnn(C)c2)cn1 [Example A8, N-(5-(1-methyl-1H-pyrazol-4-yl)-4-((6-(methylsulfonyl)pyridin-2-yl)amino)pyridin-2-yl)acetamide] | 0.26 | –
4 | CC(=O)Nc1cc(Nc2cc(C)cc(S(C)(=O)=O)n2)c(-c2ccn(CC(=O)N3CCOCC3)n2)cn1 [Example A13, N-(4-((4-methyl-6-(methylsulfonyl)pyridin-2-yl)amino)-5-(1-(2-morpholino-2-oxoethyl)-1H-pyrazol-3-yl)pyridin-2-yl)acetamide] | 0.08 | –
5 | CC(=O)Nc1cc(Nc2cc(OC(C)C)cc(S(C)(=O)=O)n2)c(-n2ccnc2)cn1 [Example A18, N-(5-(1H-imidazol-1-yl)-4-((4-isopropoxy-6-(methylsulfonyl)pyridin-2-yl)amino)pyridin-2-yl)acetamide] | 8.15 | –
6 | CC(=O)Nc1cc(Nc2cccc(S(C)(=O)=O)n2)c(-c2cccnc2)cn1 [Example B2, N-(4-((6-(methylsulfonyl)pyridin-2-yl)amino)-[3,3′-bipyridin]-6-yl)acetamide] | 5.8 | –
7 | COCCOc1cc(Nc2cc(NC(C)=O)ncc2-c2ccccn2)nc(S(C)(=O)=O)c1 [Example B6, N-(4′-((4-(2-methoxyethoxy)-6-(methylsulfonyl)pyridin-2-yl)amino)-[2,3′-bipyridin]-6′-yl)acetamide] | – | IC50 (pSTAT5/GM-CSF): > 10000 nM; Selectivity fold (TYK2/JAK2) ([2]; Cellular assay, pSTAT5/GM-CSF IC50 vs pSTAT4/IL-12 IC50): >8264 fold; IC50 [2]: 1.21 nM
8 | CC(=O)Nc1cc(Nc2cccc(S(C)(=O)=O)c2)c(-c2cc(C(C)(C)O)ccn2)cn1 [Example B9, N-(4-(2-hydroxypropan-2-yl)-4′-((3-(methylsulfonyl)phenyl)amino)-[2,3′-bipyridin]-6′-yl)acetamide] | 0.53 | –
9 | CC(=O)Nc1cc(Nc2cc(C)cc(S(C)(=O)=O)n2)c(-c2cc(C(C)(C)O)ccn2)cn1 [Example B10, N-(4-(2-hydroxypropan-2-yl)-4′-((4-methyl-6-(methylsulfonyl)pyridin-2-yl)amino)-[2,3′-bipyridin]-6′-yl)acetamide] | 0.045 | –
10 | CC(=O)Nc1cc(Nc2cccc(S(C)(=O)=O)c2)c(-c2ccc(N3CCOCC3)cn2)cn1 [Example B11, N-(4′-((3-(methylsulfonyl)phenyl)amino)-5-morpholino-[2,3′-bipyridin]-6′-yl)acetamide] | 0.019 | –
11 | CC(=O)Nc1cc(Nc2cc(O[C@H]3C[C@H](O)C3)cc(S(C)(=O)=O)c2)c(-c2ccc(C(F)(F)F)cn2)cn1 [Example F5, N-(4′-((3-((trans)-3-hydroxycyclobutoxy)-5-(methylsulfonyl)phenyl)amino)-5-(trifluoromethyl)-[2,3′-bipyridin]-6′-yl)acetamide] | 0.061 | –
12 | CC(=O)Nc1cc(Nc2nc(S(C)(=O)=O)ccc2C2CCOCC2)c(-c2ccc3c(n2)OCC(C)(C)O3)cn1 [Example Q90, N-(5-(2,2-dimethyl-2,3-dihydro-[1,4]dioxino[2,3-b]pyridin-6-yl)-4-((6-(methylsulfonyl)-3-(tetrahydro-2H-pyran-4-yl)pyridin-2-yl)amino)pyridin-2-yl)acetamide] | – | IC50 (pSTAT5/GM-CSF): > 10000 nM; Selectivity fold (TYK2/JAK2) (pSTAT5/GM-CSF): >227 fold; IC50 [2]: 44 nM
13 | CC(=O)Nc1cc(Nc2cc(N3CCC4(CC4)C3)cc(S(C)(=O)=O)n2)c(-c2ccc3c(n2)OCC(C)(C)O3)cn1 [Example Q97, N-(5-(2,2-dimethyl-2,3-dihydro-[1,4]dioxino[2,3-b]pyridin-6-yl)-4-((6-(methylsulfonyl)-4-(5-azaspiro[2.4]heptan-5-yl)pyridin-2-yl)amino)pyridin-2-yl)acetamide] | – | IC50 (pSTAT5/GM-CSF): > 10000 nM; Selectivity fold (TYK2/JAK2) (pSTAT5/GM-CSF): >3039 fold; IC50 [2]: 3.29 nM
14 | CC(=O)Nc1cc(Nc2cc(-c3ccc(C#N)nc3)cc(S(C)(=O)=O)n2)c(-c2ccc3c(n2)OCC(C)(C)O3)cn1 [Example Q108, N-(4-((6-cyano-6′-(methylsulfonyl)-[3,4′-bipyridin]-2′-yl)amino)-5-(2,2-dimethyl-2,3-dihydro-[1,4]dioxino[2,3-b]pyridin-6-yl)pyridin-2-yl)acetamide] | – | IC50 (pSTAT5/GM-CSF): > 10000 nM; Selectivity fold (TYK2/JAK2) (pSTAT5/GM-CSF): >8474 fold; IC50 [2]: 1.18 nM
15 | CC(=O)Nc1cc(Nc2cc(-c3nccnc3C)cc(S(C)(=O)=O)n2)c(-c2ccc3c(n2)OCC(C)(C)O3)cn1 [Example Q110, N-(5-(2,2-dimethyl-2,3-dihydro-[1,4]dioxino[2,3-b]pyridin-6-yl)-4-((4-(3-methylpyrazin-2-yl)-6-(methylsulfonyl)pyridin-2-yl)amino)pyridin-2-yl)acetamide] | – | IC50 (pSTAT5/GM-CSF): > 10000 nM; Selectivity fold (TYK2/JAK2) (pSTAT5/GM-CSF): >9259 fold; IC50 [2]: 1.08 nM

The next lines start with results.

Row | IC50 [1] [nM] | Compound | also measured
16 | 0.068 | CC(=O)Nc1cc(Nc2cc(C)cc(S(C)(=O)=O)c2)c(-c2ccc(C(F)(F)F)cn2)cn1 [Example F3, N-(4′-((3-methyl-5-(methylsulfonyl)phenyl)amino)-5-(trifluoromethyl)-[2,3′-bipyridin]-6′-yl)acetamide] | –
17 | 0.324 | CC(=O)Nc1cc(Nc2cc(C#N)cc(S(C)(=O)=O)c2)c(-c2ccc(C(F)(F)F)cn2)cn1 [Example F4, N-(4′-((3-cyano-5-(methylsulfonyl)phenyl)amino)-5-(trifluoromethyl)-[2,3′-bipyridin]-6′-yl)acetamide] | –
18 | 0.532 | CC(=O)Nc1cc(Nc2cc(OCC3CC3)cc(S(C)(=O)=O)c2)c(-c2ccc(C(F)(F)F)cn2)cn1 [Example F6, N-(4′-((3-(cyclopropylmethoxy)-5-(methylsulfonyl)phenyl)amino)-5-(trifluoromethyl)-[2,3′-bipyridin]-6′-yl)acetamide] | –
19 | 0.085 | CC(=O)Nc1cc(Nc2cc(OCCO)cc(S(C)(=O)=O)c2)c(-c2ccc(C(F)(F)F)cn2)cn1 [Example F7, N-(4′-((3-(2-hydroxyethoxy)-5-(methylsulfonyl)phenyl)amino)-5-(trifluoromethyl)-[2,3′-bipyridin]-6′-yl)acetamide] | –
20 | 0.087 | COCCOc1cc(Nc2cc(NC(C)=O)ncc2-c2ccc(C(F)(F)F)cn2)cc(S(C)(=O)=O)c1 [Example F8, N-(4′-((3-(2-methoxyethoxy)-5-(methylsulfonyl)phenyl)amino)-5-(trifluoromethyl)-[2,3′-bipyridin]-6′-yl)acetamide] | –
21 | 0.04 | CCOc1cc(Nc2cc(NC(C)=O)ncc2-c2ccc(C(F)(F)F)cn2)nc(S(C)(=O)=O)c1 [Example F10, N-(4′-((4-ethoxy-6-(methylsulfonyl)pyridin-2-yl)amino)-5-(trifluoromethyl)-[2,3′-bipyridin]-6′-yl)acetamide] | –
